Laboratory results reported in patent US9486536B2 (Immunomedics, Inc., priority 2013, dated 2016).

How the values were obtained:
[1] = relative to doxorubicin; cited from earlier work
[2] = system: Non-Hodgkin's Lymphoma (NHL); test: treatment of NHL patients; format: in vivo, human
Description: A P2PDox-epratuzumab ADC is prepared as described in Examples 1 and 3 above. Seventeen patients with previously untreated or relapsed NHL receive 4 doses of 70, 100 or 150 mg P2PDox-epratuzumab injected i.v. every two weeks. Responses are assessed by CT scans, with other evaluations including adverse event, B-cell blood levels, serum epratuzumab levels and human anti-epratuzumab (HAHA) titers.

moderately active SLE = test: open-label study in SLE patients
Description: An open-label, single-center study of patients with moderately active SLE (total British Isles Lupus Assessment Group (BILAG) score 6 to 12) is conducted. Patients receive dosages of epratuzumab-P2PDox (conjugated at a drug/antibody ratio of 3.5) of 10, 20, 40 and 60 mg conjugate i.v. every other week for 3 injections, repeated 4 months later. Evaluations include safety, SLE activity (BILAG), blood levels of B and T cells, and human anti-epratuzumab antibody (HAHA) titers.

CD22 = CD22 (Homo sapiens, UniProt P20273); test: antibody binding to target antigen after conjugation
[3] = system: Daudi, Raji, Ramos and JVM-3 hematopoietic tumor lines; test: cytotoxicity of P2PDox-mAb conjugates to target cells; format: cell-based; details: not shown
Description: The cytotoxicity of P2PDox-mAb conjugates to target cells was examined. hRS7-P2PDox and hMN-15-P2PDox were cytotoxic to MDA-MB-468, AG S, NCI-N87 and Capan-1 solid tumor cell lines (not shown). hMN-14-P2PDox was cytotoxic to Capan-1, BxPC-3 and AsPC-1 human pancreatic tumor lines and AGS, NCI-N87 and LS147T human gastric and colonic tumor lines (not shown). hLL2-P2PDOx was cytotoxic to Daudi, Raji, Ramos and JVM-3 hematopoietic tumor lines (not shown). IC50 values for the conjugates were in the nanomolar concentration range (not shown).

[4] = 4 doses of 70, 100 or 150 mg i.v. every two weeks, 17 patients

Row | Molecule | cytotoxicity, times that of doxorubicin [1] | complete response/complete response unconfirmed rate [2, 4] [%] | objective response rate [2, 4] [%] | transient B-cell depletion ([2]; all dosage levels) | human anti-epratuzumab antibody (HAHA) in serum samples ([2]; human, in vivo) | objective responses continuing for 30 weeks or more ([2]; human, in vivo) | safety issues ([2]; reversible after interrupting therapy) | decrease of total BILAG scores (moderately active SLE; all patients, 10, 20, 40 and 60 mg i.v. every other week for 3 injections, drug/antibody ratio 3.5) | patients with improvement in at least one BILAG B- or C-level disease activity (moderately active SLE; at 6, 10 and 18 weeks) [%] | average decrease of B-cell levels (moderately active SLE; at 18 weeks) [%] | patients with BILAG decreases continuing to at least 18 weeks (moderately active SLE; human, in vivo) [%] | tolerability (moderately active SLE; human, in vivo) | effect of conjugation on antibody binding (CD22) | cytotoxicity [3]
1 | COc1cccc2c1C(=O)c1c(O)c3c(c(O)c1C2=O)C[C@@](O)(C(=O)CO)C[C@@H]3O[C@H]1C[C@H](N2C=CCC2)[C@H](O)[C@H](C)O1 [2-pyrrolinodoxorubicin] | 500-1000 times | – | – | – | – | – | – | – | – | – | – | – | – | –
2 | hLL2-P2PDox | – | 24 | 47 | up to 25% | negative | Four of the eight | neutropenia up to Grade 3 | at least 50% | 93 | 35 | 92 | well tolerated | lack of effect of conjugation on antibody binding to target antigen | cytotoxic
